This note sets out measurements from patent publication US20210355104A1, “ADENOSINE RECEPTOR BINDING COMPOUNDS” (Nikang Therapeuticsm Inc., priority 2018, published 2021).

The target of assay [1] is T1, Adenosine A2A receptor (Homo sapiens, UniProt P29274). Briefly: cAMP assay in 293A cells stably expressing the adenosine A2A receptor (CGS21680 stimulation, HTRF). Type of assay: cell-based. On the set-up: expressed in transfected cells; host or cells: 293A cells (Invitrogen, Cat# R705-07) infected with A2A-expressing lentivirus (custom packaged by Biosettia), puromycin selected. As to conditions: 293A-A2AR cells, 0.1% BSA.

Assay [2] deals with T1, Adenosine A2A receptor. Briefly: Adenosine A2A receptor competitive binding assay (Tag-lite HTRF). As to conditions: Tag-lite adenosine A2A receptor ligand binding. Put shortly: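 Tag-lite HTRF competition: donor-labelled cells expressing human A2A were mixed with serially diluted compounds (DMSO 0.6% in dilutions) and red fluorescent A2A antagonist ligand (60 nM stock). Incubated 2 h at room temperature before HTRF readout.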

Setting [3] is: 8 nM CGS, values separated by / are repeat determinations, read-out: cAMP (nM) 0.1% BSA, 8 nM CGS.
The mark [4] stands for this setting: 2 h room temperature, values separated by / are repeat determinations.
[5] abbreviates: 1 uM CGS, values separated by / are repeat determinations, read-out: cAMP (nM) 0.1% BSA, 1 uM CGS.

Several values for one entry are separate records, joined by “and”; a condition that tells them apart may be missing. Identical values can stand only once.

T1 sequence (P29274 whole entry): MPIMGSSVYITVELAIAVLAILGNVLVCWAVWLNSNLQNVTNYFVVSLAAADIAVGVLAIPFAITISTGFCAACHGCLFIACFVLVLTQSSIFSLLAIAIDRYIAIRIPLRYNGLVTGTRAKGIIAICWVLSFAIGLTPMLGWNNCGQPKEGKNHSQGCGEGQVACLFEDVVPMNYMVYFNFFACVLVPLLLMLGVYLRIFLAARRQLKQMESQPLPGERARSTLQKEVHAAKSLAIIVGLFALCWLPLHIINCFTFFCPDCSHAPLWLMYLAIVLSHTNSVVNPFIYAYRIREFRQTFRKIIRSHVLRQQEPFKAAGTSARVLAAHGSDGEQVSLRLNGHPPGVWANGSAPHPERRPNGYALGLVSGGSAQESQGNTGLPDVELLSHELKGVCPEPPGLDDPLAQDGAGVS

For the molecule `Cc1cc(-c2c(OCCN(C)c3ccc(C#N)cn3)nc(N)nc2-c2ccc(F)cc2)cc(C(F)F)n1` [Example 156, 6-((2-((2-amino-5-(2-(difluoromethyl)-6-methylpyridin-4-yl)-6-(4-fluorophenyl)pyrimidin-4-yl)oxy)ethyl)(methyl)amino)nicotinonitrile], the values for the IC50 at Adenosine A2A receptor [1] (setting [3]) and at Adenosine A2A receptor [2] (setting [4]) were 57 nM and 84 nM, respectively.

On to `Cc1cc(-c2c(OCCN(C)c3ccc(S(C)(=O)=O)cn3)nc(N)nc2-c2ccc(F)cc2)cc(C(F)F)n1` [Example 157, 5-(2-(difluoromethyl)-6-methylpyridin-4-yl)-4-(4-fluorophenyl)-6-(2-(methyl(5-(methylsulfonyl)pyridin-2-yl)amino)ethoxy)pyrimidin-2-amine], for which the IC50 amounted to 52 nM on Adenosine A2A receptor [1] (setting [3]) and 79 nM on Adenosine A2A receptor [2] (setting [4]).

For `COC(=O)NCC1(COc2nc(N)nc(-c3ccc(F)cc3)c2-c2cc(C)nc(C(F)F)c2)CCOCC1` [Example 158, methyl ((4-(((2-amino-5-(2-(difluoromethyl)-6-methylpyridin-4-yl)-6-(4-fluorophenyl)pyrimidin-4-yl)oxy)methyl)tetrahydro-2H-pyran-4-yl)methyl)carbamate], the results for the IC50 on Adenosine A2A receptor [1] (setting [3]) and at Adenosine A2A receptor [2] (setting [4]) were 231 nM and 627 nM, respectively.

As to `Cc1cc(-c2c(OCC(=O)NCC3CCOCC3)nc(N)nc2-c2ccc(F)cc2)cc(C(F)F)n1` [Example 160, 2-((2-amino-5-(2-(difluoromethyl)-6-methylpyridin-4-yl)-6-(4-fluorophenyl)pyrimidin-4-yl)oxy)-N-((tetrahydro-2H-pyran-4-yl)methyl)acetamide], the IC50 was determined as 184 nM on Adenosine A2A receptor [1] (setting [3]) and 336 nM on Adenosine A2A receptor [2] (setting [4]).

In the case of `Cc1cc(-c2c(OCC(=O)NCC(F)(F)F)nc(N)nc2-c2ccc(F)cc2)cc(C(F)F)n1` [Example 161, 2-((2-amino-5-(2-(difluoromethyl)-6-methylpyridin-4-yl)-6-(4-fluorophenyl)pyrimidin-4-yl)oxy)-N-(2,2,2-trifluoroethyl)acetamide], the IC50 is 14 nM at Adenosine A2A receptor [1] (setting [3]) and 44 nM at Adenosine A2A receptor [2] (setting [4]).

`Cc1cc(-c2c(OCC(=O)NCC(C)(F)F)nc(N)nc2-c2ccc(F)cc2)cc(C(F)F)n1` [Example 162, 2-((2-amino-5-(2-(difluoromethyl)-6-methylpyridin-4-yl)-6-(4-fluorophenyl)pyrimidin-4-yl)oxy)-N-(2,2-difluoropropyl)acetamide]: the IC50 is 8.4 nM on Adenosine A2A receptor [1] (setting [3]) and 21.1 nM on Adenosine A2A receptor [2] (setting [4]).

As to `Cc1cc(-c2c(OCCCS(C)(=N)=O)nc(N)nc2-c2ccc(F)cc2)cc(C(F)F)n1` (stereo not drawn) [Example 169, (3-((2-amino-5-(2-(difluoromethyl)-6-methylpyridin-4-yl)-6-(4-fluorophenyl)pyrimidin-4-yl)oxy)propyl)(imino)(methyl)-λ^6-sulfanone], the values for the IC50 on Adenosine A2A receptor [1] (setting [3]) and on Adenosine A2A receptor [2] (setting [4]) were 7.1 nM and 9.7 nM, respectively.

Turning to `Cc1cc(-c2c(OCc3nccn3C3CC3)nc(N)nc2-c2ccc(F)cc2)cc(C(F)F)n1` [Example 170, 4-((1-cyclopropyl-1H-imidazol-2-yl)methoxy)-5-(2-(difluoromethyl)-6-methylpyridin-4-yl)-6-(4-fluorophenyl)pyrimidin-2-amine], the IC50 at Adenosine A2A receptor [1] (setting [3]) was 1.1 nM and 1.6 nM; at Adenosine A2A receptor [1] (setting [5]), 33 nM; on Adenosine A2A receptor [2] (setting [4]) it was 1.1 nM (2×) and 2.9 nM.

With `Cc1cc(-c2c(OCc3nccn3C3COC3)nc(N)nc2-c2ccc(F)cc2)cc(C(F)F)n1` [Example 171, 5-(2-(difluoromethyl)-6-methylpyridin-4-yl)-4-(4-fluorophenyl)-6-((1-(oxetan-3-yl)-1H-imidazol-2-yl)methoxy)pyrimidin-2-amine], the IC50 on Adenosine A2A receptor [1] (setting [3]) was found to be 4.1 nM; on Adenosine A2A receptor [2] (setting [4]) it was 3.6 nM.

Consider `Cc1cc(-c2c(OCc3nccn3CC(C)(C)O)nc(N)nc2-c2ccc(F)cc2)cc(C(F)F)n1` [Example 175, 1-(2-(((2-amino-5-(2-(difluoromethyl)-6-methylpyridin-4-yl)-6-(4-fluorophenyl)pyrimidin-4-yl)oxy)methyl)-1H-imidazol-1-yl)-2-methylpropan-2-ol], for which the IC50 on Adenosine A2A receptor [1] (setting [3]) was determined as 19 nM; at Adenosine A2A receptor [2] (setting [4]), 15 nM.

`Cc1cc(-c2c(OCc3nccn3CC(C)C)nc(N)nc2-c2ccc(F)cc2)cc(C(F)F)n1` [Example 176, 5-(2-(difluoromethyl)-6-methylpyridin-4-yl)-4-(4-fluorophenyl)-6-((1-isobutyl-1H-imidazol-2-yl)methoxy)pyrimidin-2-amine]: the IC50 amounted to 7.9 nM at Adenosine A2A receptor [1] (setting [3]) and 3.6 nM at Adenosine A2A receptor [2] (setting [4]).

Turning to `Cc1cc(-c2c(OCc3nccn3CC3CC3)nc(N)nc2-c2ccc(F)cc2)cc(C(F)F)n1` [Example 177, 4-((1-(cyclopropylmethyl)-1H-imidazol-2-yl)methoxy)-5-(2-(difluoromethyl)-6-methylpyridin-4-yl)-6-(4-fluorophenyl)pyrimidin-2-amine], the IC50 on Adenosine A2A receptor [1] (setting [3]) was 2.6 nM and 2.9 nM; at Adenosine A2A receptor [1] (setting [5]), 271 nM; on Adenosine A2A receptor [2] (setting [4]), 0.2 nM.

Take `Cc1cc(-c2c(OCc3nncn3C(C)C)nc(N)nc2-c2ccc(F)cc2)cc(C(F)F)n1` [Example 178, 5-(2-(difluoromethyl)-6-methylpyridin-4-yl)-4-(4-fluorophenyl)-6-((4-isopropyl-4H-1,2,4-triazol-3-yl)methoxy)pyrimidin-2-amine]: the IC50 is 1.5 nM at Adenosine A2A receptor [1] (setting [3]); 1.4 nM and 3.2 nM on Adenosine A2A receptor [2] (setting [4]).

`Cc1cc(-c2c(OCc3ncnn3C(C)C)nc(N)nc2-c2ccc(F)cc2)cc(C(F)F)n1` [Example 179, 5-(2-(difluoromethyl)-6-methylpyridin-4-yl)-4-(4-fluorophenyl)-6-((1-isopropyl-1H-1,2,4-triazol-5-yl)methoxy)pyrimidin-2-amine]: the IC50 at Adenosine A2A receptor [1] (setting [3]) was 2.9 nM; at Adenosine A2A receptor [1] (setting [5]) it was 16 nM and 57 nM; at Adenosine A2A receptor [2] (setting [4]), 0.7 nM and 1 nM.

Regarding `Cc1cc(-c2c(OCc3cnnn3C(C)C)nc(N)nc2-c2ccc(F)cc2)cc(C(F)F)n1` [Example 180, 5-(2-(difluoromethyl)-6-methylpyridin-4-yl)-4-(4-fluorophenyl)-6-((1-isopropyl-1H-1,2,3-triazol-5-yl)methoxy)pyrimidin-2-amine], the IC50 at Adenosine A2A receptor [1] (setting [3]) is 2.5 nM; at Adenosine A2A receptor [2] (setting [4]), 15 nM.

With `Cc1cc(-c2c(OCc3n[nH]cc3C(C)C)nc(N)nc2-c2ccc(F)cc2)cc(C(F)F)n1` [Example 183, 5-(2-(difluoromethyl)-6-methylpyridin-4-yl)-4-(4-fluorophenyl)-6-((4-isopropyl-1H-pyrazol-3-yl)methoxy)pyrimidin-2-amine], the IC50 worked out at 12 nM on Adenosine A2A receptor [1] (setting [3]) and 46 nM on Adenosine A2A receptor [2] (setting [4]).

Regarding `Cc1cc(-c2c(OCc3nn(C)cc3C(C)C)nc(N)nc2-c2ccc(F)cc2)cc(C(F)F)n1` [Example 184, 5-(2-(difluoromethyl)-6-methylpyridin-4-yl)-4-(4-fluorophenyl)-6-((4-isopropyl-1-methyl-1H-pyrazol-3-yl)methoxy)pyrimidin-2-amine], the results for the IC50 on Adenosine A2A receptor [1] (setting [3]) and at Adenosine A2A receptor [2] (setting [4]) were 8.8 nM and 33 nM, respectively.

In the case of `Cc1cc(-c2c(OCc3nnn(C(C)C)n3)nc(N)nc2-c2ccc(F)cc2)cc(C(F)F)n1` [Example 185, 5-(2-(difluoromethyl)-6-methylpyridin-4-yl)-4-(4-fluorophenyl)-6-((2-isopropyl-2H-tetrazol-5-yl)methoxy)pyrimidin-2-amine], the IC50 is 6 nM and 25 nM at Adenosine A2A receptor [1] (setting [5]); 7.1 nM on Adenosine A2A receptor [2] (setting [4]).

As for `Cc1cc(-c2c(OCc3cccc(=O)n3C(C)C)nc(N)nc2-c2ccc(F)cc2)cc(C(F)F)n1` [Example 186, 6-(((2-amino-5-(2-(difluoromethyl)-6-methylpyridin-4-yl)-6-(4-fluorophenyl)pyrimidin-4-yl)oxy)methyl)-1-isopropylpyridin-2(1H)-one], the IC50 on Adenosine A2A receptor [1] (setting [3]) turned out to be 4.1 nM; at Adenosine A2A receptor [1] (setting [5]), 10500 nM; on Adenosine A2A receptor [2] (setting [4]), 2.6 nM.

Consider `Cc1cc(-c2c(OCc3ncc(C#N)n3C(C)C)nc(N)nc2-c2ccc(F)cc2)cc(C(F)F)n1` [Example 191, 2-(((2-amino-5-(2-(difluoromethyl)-6-methylpyridin-4-yl)-6-(4-fluorophenyl)pyrimidin-4-yl)oxy)methyl)-1-isopropyl-1H-imidazole-5-carbonitrile], for which the IC50 at Adenosine A2A receptor [1] (setting [3]) is 12 nM; on Adenosine A2A receptor [2] (setting [4]), 39 nM.

Consider `Cc1cc(-c2c(OCc3ncc(S(C)(=O)=O)n3C(C)C)nc(N)nc2-c2ccc(F)cc2)cc(C(F)F)n1` [Example 192, 5-(2-(difluoromethyl)-6-methylpyridin-4-yl)-4-(4-fluorophenyl)-6-((1-isopropyl-5-(methylsulfonyl)-1H-imidazol-2-yl)methoxy)pyrimidin-2-amine], for which the IC50 at Adenosine A2A receptor [1] (setting [3]) is 9.7 nM; at Adenosine A2A receptor [2] (setting [4]), 26 nM.

With `Cc1cc(-c2c(OCc3nccn3C3CCC3)nc(N)nc2-c2ccc(F)cc2)cc(C(F)F)n1` [Example 194, 4-((1-cyclobutyl-1H-imidazol-2-yl)methoxy)-5-(2-(difluoromethyl)-6-methylpyridin-4-yl)-6-(4-fluorophenyl)pyrimidin-2-amine], the IC50 on Adenosine A2A receptor [1] (setting [3]) is 1.5 nM; at Adenosine A2A receptor [1] (setting [5]), 151 nM; at Adenosine A2A receptor [2] (setting [4]), 0.6 nM and 1.7 nM.

As to `Cc1cc(-c2c(OCC3CCC(C)(O)CC3)nc(N)nc2-c2ccc(F)cc2)cc(C(F)F)n1` (stereo not drawn) [Example 197, 4-(((2-amino-5-(2-(difluoromethyl)-6-methylpyridin-4-yl)-6-(4-fluorophenyl)pyrimidin-4-yl)oxy)methyl)-1-methylcyclohexan-1-ol], the IC50 on Adenosine A2A receptor [1] (8 nM CGS, read-out: cAMP (nM) 0.1% BSA, 8 nM CGS) came to 6.3 nM; on Adenosine A2A receptor [2] (HTRF) it was 19.1 nM.
